Drawing on PubChem BioAssay (NCI), this text covers TGI for 27 compounds.

What is called TGI is the concentration giving total growth inhibition. Low readings indicate greater sensitivity of the cells, high ones lower sensitivity of the cells.

The structures appear in SMILES notation.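 Test compounds were applied to cells in 96-well plates for 48 hours at 5 doses. TGI is the concentration that stops growth completely.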

The subject of the first experiment is OVCAR-5 ovarian. The experiment can be described thus: DTP human tumour cell line panel, 48 h.
Turning to `O=C1CCC23CC(C=CC=C12)n1c(=O)n(-c2ccccc2)c(=O)n13` (stereo not drawn), the TGI is above 100 µM.

`C[C@]12CC[C@H](O)CC1=CC[C@@H]1C2CC[C@]2(C)C(=O)N(N)C(=O)CC12` (stereo partly drawn) gave a TGI above 100 µM.

Compound `Cc1ccccc1-n1c(=O)c2ncn(CCCl)c2n(-c2ccccc2C)c1=S` showed a TGI above 100 µM.

Compound `N#CN=C(N(Cc1ccccc1)Cc1ccccc1)N(Cc1ccccc1)Cc1ccccc1` gave a total growth inhibition concentration (TGI) above 100 µM.

For `[N-]=[N+]=Nc1cc(=O)oc2ccccc12`, the TGI is above 100 µM.

In the case of `CCOC(=O)N1CCC2(CC1)C[C@](C)(C(C)=O)C(C)O2` (stereo partly drawn), the total growth inhibition concentration (TGI) is above 100 µM.

Compound `CNC(=O)C(C)C1CCC2(C)C=CC(=O)C(C)=C2C1O` (stereo not drawn) displayed a TGI above 100 µM.

As to `COc1cc2c(cc1OC)C(c1ccccc1CCCCl)=NCC2`, the concentration for total growth inhibition (TGI) was above 100 µM.

`COc1cc([C@@H]2c3cc4c(cc3[C@@H](Nc3ccc([N+](=O)[O-])cc3C(=O)c3ccccc3)[C@H]3COC(=O)[C@H]23)OCO4)cc(OC)c1OC`: the TGI was above 100 µM.

Compound `CCN(CC)CCC(=O)Nc1ccc2c(c1)C(=O)c1ccc(NC(=O)CCN(CC)CC)cc1C2=O` returned a total growth inhibition concentration (TGI) of 25.1 µM. This counts as double-digit micromolar.

As to `CC(C)c1ccc(/C=C2/C=C(c3ccc4ccccc4c3)OC2=O)cc1`, the total growth inhibition concentration (TGI) was above 100 µM.

Compound `CC(C)CCCCCCCCCCCCC(=O)NCC(=O)NC1C(C)OC(Nc2ncnc3c2ncn3C)C(O)C1O` (stereo not drawn) returned a TGI of 97 µM.

`CCCCCCCCCCCOc1ccc(C(=O)C(=O)c2ccc(OCCCCCCCCCCC)c(OCCCCCCCCCCC)c2)cc1OCCCCCCCCCCC`: the concentration for total growth inhibition (TGI) is above 100 µM.

With `COc1nc(N)c(C(=O)CCl)c(=O)n1C`, the TGI is 37.2 µM.

For `CC1C=C(CCCCCCCCCCCC[C@@H](O)[C@@H]2CC[C@@H]([C@@H]3CC[C@@H](C(O)CCCCCCCCCCCCC4=C[C@H](C)OC4=O)O3)O2)C(=O)O1` (stereo partly drawn), the concentration for total growth inhibition (TGI) is above 100 µM.

`CNC(=O)OCC1=C(COC(=O)NC)C(C)N(c2ccc(OC)cc2)C1` (stereo not drawn): the TGI is above 100 µM.

As for `O=C1c2ccccc2C2C1N2C(=O)C(F)(F)F` (stereo not drawn), the TGI was above 100 µM.

Take `O=S1(=O)NC(=NCc2c[nH]c3ccccc23)N(c2ccccc2)c2ccncc21`: the TGI was above 100 µM.

As for `CC(=O)NNc1nc(C)c(C(=O)NNC(=O)C(=O)Nc2c(Cl)cc([N+](=O)[O-])cc2Cl)s1`, the TGI was 93.4 µM.

On to `CCOC(=O)C1=C(C)NC(=S)NC1c1ccccc1` (stereo not drawn), for which the total growth inhibition concentration (TGI) was above 100 µM.

Turning to `N.N.N.N.O=[N+]([O-])[O-].[Co+3].[N-]=[N+]=[N-].[N-]=[N+]=[N-]`, the TGI is above 100 µM.

For the compound `CCC12C=CCN3CCC4(C(=C(C(=O)OC)[C@@H]1O)Nc1ccccc14)C32` (stereo partly drawn), the TGI turned out to be 4.67 µM.

On to `CC(=O)Nc1ccc(-c2nnc(SCC(=O)Nc3ccc([N+](=O)[O-])cc3)o2)cc1`, for which the TGI was determined as 36 µM.

The next experiment has as its system PC-3 prostate. The experiment can be described thus: DTP human tumour cell line panel, 48 h.
Regarding `Cc1ccccc1-n1c(=O)c2ncn(CCCl)c2n(-c2ccccc2C)c1=S`, the TGI was above 100 µM.

In turn, `CCOC(=O)N1CCC2(CC1)C[C@](C)(C(C)=O)C(C)O2` (stereo partly drawn) had a TGI above 100 µM.

Compound `COc1cc2c(cc1OC)C(c1ccccc1CCCCl)=NCC2` gave a TGI above 100 µM.

Compound `COc1cc([C@@H]2c3cc4c(cc3[C@@H](Nc3ccc([N+](=O)[O-])cc3C(=O)c3ccccc3)[C@H]3COC(=O)[C@H]23)OCO4)cc(OC)c1OC` showed a TGI above 100 µM.

`CC(C)c1ccc(/C=C2/C=C(c3ccc4ccccc4c3)OC2=O)cc1` came in with a TGI above 100 µM.

Regarding `CNC(=O)OCC1=C(COC(=O)NC)C(C)N(c2ccc(OC)cc2)C1` (stereo not drawn), the TGI was above 100 µM.

`O=S1(=O)NC(=NCc2c[nH]c3ccccc23)N(c2ccccc2)c2ccncc21` gave a TGI above 100 µM.

A further experiment relates to SK-MEL-2 melanoma. The experiment can be described thus: DTP human tumour cell line panel, 48 h.
`COc1cc([C@@H]2OCC3C(c4ccc5c(c4)OCO5)OCC32)cc(OC)c1OC` (stereo partly drawn) displayed a TGI above 100 µM.

Turning to `O=C1CCC23CC(C=CC=C12)n1c(=O)n(-c2ccccc2)c(=O)n13` (stereo not drawn), the TGI was above 100 µM.

With `C[C@]12CC[C@H](O)CC1=CC[C@@H]1C2CC[C@]2(C)C(=O)N(N)C(=O)CC12` (stereo partly drawn), the TGI is above 100 µM.

`Cc1ccccc1-n1c(=O)c2ncn(CCCl)c2n(-c2ccccc2C)c1=S`: the TGI was above 100 µM.

In turn, `N#CN=C(N(Cc1ccccc1)Cc1ccccc1)N(Cc1ccccc1)Cc1ccccc1` showed a TGI above 100 µM.

Compound `[N-]=[N+]=Nc1cc(=O)oc2ccccc12` came in with a TGI above 100 µM.

For `CCOC(=O)N1CCC2(CC1)C[C@](C)(C(C)=O)C(C)O2` (stereo partly drawn), the TGI is above 100 µM.

As for `CNC(=O)C(C)C1CCC2(C)C=CC(=O)C(C)=C2C1O` (stereo not drawn), the TGI is above 100 µM.

In turn, `COc1cc2c(cc1OC)C(c1ccccc1CCCCl)=NCC2` displayed a TGI above 100 µM.

`Cc1cccc2c(=O)cc(-c3ccccc3)[nH]c12` returned a TGI above 100 µM.

Regarding `COc1cc([C@@H]2c3cc4c(cc3[C@@H](Nc3ccc([N+](=O)[O-])cc3C(=O)c3ccccc3)[C@H]3COC(=O)[C@H]23)OCO4)cc(OC)c1OC`, the TGI was above 100 µM.

In the case of `CCN(CC)CCC(=O)Nc1ccc2c(c1)C(=O)c1ccc(NC(=O)CCN(CC)CC)cc1C2=O`, the TGI turned out to be 19 µM.

`CC(C)c1ccc(/C=C2/C=C(c3ccc4ccccc4c3)OC2=O)cc1` registered a TGI of 39.6 µM.

In the case of `CC(C)CCCCCCCCCCCCC(=O)NCC(=O)NC1C(C)OC(Nc2ncnc3c2ncn3C)C(O)C1O` (stereo not drawn), the TGI is above 100 µM.

Compound `CCCCCCCCCCCOc1ccc(C(=O)C(=O)c2ccc(OCCCCCCCCCCC)c(OCCCCCCCCCCC)c2)cc1OCCCCCCCCCCC` registered a concentration for total growth inhibition (TGI) above 100 µM.

The compound `CC(N)Cc1ccc(C(=O)Cl)cc1` (stereo not drawn) yielded a TGI above 100 µM.

Compound `COc1nc(N)c(C(=O)CCl)c(=O)n1C` registered a concentration for total growth inhibition (TGI) of 25.1 µM.

Compound `CC1C=C(CCCCCCCCCCCC[C@@H](O)[C@@H]2CC[C@@H]([C@@H]3CC[C@@H](C(O)CCCCCCCCCCCCC4=C[C@H](C)OC4=O)O3)O2)C(=O)O1` (stereo partly drawn) had a TGI above 100 µM.

In turn, `CNC(=O)OCC1=C(COC(=O)NC)C(C)N(c2ccc(OC)cc2)C1` (stereo not drawn) came in with a TGI above 100 µM.

On to `O=C1c2ccccc2C2C1N2C(=O)C(F)(F)F` (stereo not drawn), for which the TGI is above 100 µM.

In turn, `CC(=O)NC1=C(NCCC(C)C)C(=O)c2ccccc2C1=O` returned a TGI above 50 µM.

For `O=S1(=O)NC(=NCc2c[nH]c3ccccc23)N(c2ccccc2)c2ccncc21`, the TGI was above 100 µM.

`CC(=O)NNc1nc(C)c(C(=O)NNC(=O)C(=O)Nc2c(Cl)cc([N+](=O)[O-])cc2Cl)s1` came in with a TGI above 100 µM.

On to `CCOC(=O)C1=C(C)NC(=S)NC1c1ccccc1` (stereo not drawn), for which the TGI is above 100 µM.

The compound `N.N.N.N.O=[N+]([O-])[O-].[Co+3].[N-]=[N+]=[N-].[N-]=[N+]=[N-]` returned a TGI above 100 µM.

`CCC12C=CCN3CCC4(C(=C(C(=O)OC)[C@@H]1O)Nc1ccccc14)C32` (stereo partly drawn) had a TGI of 3.84 µM.

As for `CC(=O)Nc1ccc(-c2nnc(SCC(=O)Nc3ccc([N+](=O)[O-])cc3)o2)cc1`, the TGI came to 33.3 µM.

A further experiment deals with SK-MEL-28 melanoma. The experiment can be described thus: DTP human tumour cell line panel, 48 h.
The compound `COc1cc([C@@H]2OCC3C(c4ccc5c(c4)OCO5)OCC32)cc(OC)c1OC` (stereo partly drawn) registered a TGI above 100 µM.

Regarding `O=C1CCC23CC(C=CC=C12)n1c(=O)n(-c2ccccc2)c(=O)n13` (stereo not drawn), the TGI is above 100 µM.

Compound `C[C@]12CC[C@H](O)CC1=CC[C@@H]1C2CC[C@]2(C)C(=O)N(N)C(=O)CC12` (stereo partly drawn) registered a TGI above 100 µM.

As for `Cc1ccccc1-n1c(=O)c2ncn(CCCl)c2n(-c2ccccc2C)c1=S`, the TGI was above 100 µM.

With `[N-]=[N+]=Nc1cc(=O)oc2ccccc12`, the TGI was above 100 µM.

Compound `CCOC(=O)N1CCC2(CC1)C[C@](C)(C(C)=O)C(C)O2` (stereo partly drawn) showed a TGI above 100 µM.
